Assay results reported in patent publication US20100242139A1, “XENOHORMESIS BASED COMPOSITIONS AND METHODS” (President and Fellows of Harvard College, priority 2006, published 2010).

How the values were obtained:
[1] = target: Abl(h) (Homo sapiens, UniProt P00519); experiment: kinase panel activity, Abl(h); type: biochemical; conditions: compound at 20 μM; vs reference with no compound
[2] = target: Abl(T315I)(h) (Homo sapiens, UniProt P00519, T315I); experiment: kinase panel activity, Abl(T315I)(h); type: biochemical; conditions: compound at 20 μM; vs reference with no compound
[3] = target: Flt3(h) (Homo sapiens, UniProt P36888); experiment: kinase panel activity, Flt3(h); type: biochemical; conditions: compound at 20 μM; vs reference with no compound
[4] = target: JAK2(h) (Homo sapiens, UniProt O60674); experiment: kinase panel activity, JAK2(h); type: biochemical; conditions: compound at 20 μM; vs reference with no compound
[5] = target: MEK1(h) (Homo sapiens, UniProt Q02750); experiment: kinase panel activity, MEK1(h); type: biochemical; conditions: compound at 20 μM; vs reference with no compound
[6] = target: PAK2(h) (Homo sapiens, UniProt Q13177); experiment: kinase panel activity, PAK2(h); type: biochemical; conditions: compound at 20 μM; vs reference with no compound
[7] = target: PAK3(h) (Homo sapiens, UniProt O75914); experiment: kinase panel activity, PAK3(h); type: biochemical; conditions: compound at 20 μM; vs reference with no compound
[8] = target: PAK4(h) (Homo sapiens, UniProt O96013); experiment: kinase panel activity, PAK4(h); type: biochemical; conditions: compound at 20 μM; vs reference with no compound
[9] = target: PDK1(h) (Homo sapiens, UniProt O15530); experiment: kinase panel activity, PDK1(h); type: biochemical; conditions: compound at 20 μM; vs reference with no compound
[10] = target: Pim-2(h) (Homo sapiens, UniProt Q9P1W9); experiment: kinase panel activity, Pim-2(h); type: biochemical; conditions: compound at 20 μM; vs reference with no compound
[11] = target: PKCα(h) (Homo sapiens, UniProt P17252); experiment: kinase panel activity, PKCα(h); type: biochemical; conditions: compound at 20 μM; vs reference with no compound
[12] = target: PKCβI(h) (Homo sapiens, UniProt P05771); experiment: kinase panel activity, PKCβI(h); type: biochemical; conditions: compound at 20 μM; vs reference with no compound
[13] = target: PKCγ(h) (Homo sapiens, UniProt P05129); experiment: kinase panel activity, PKCγ(h); type: biochemical; conditions: compound at 20 μM; vs reference with no compound
[14] = target: PKCδ(h) (Homo sapiens, UniProt Q05655); experiment: kinase panel activity, PKCδ(h); type: biochemical; conditions: compound at 20 μM; vs reference with no compound
[15] = target: PKCθ(h) (Homo sapiens, UniProt Q04759); experiment: kinase panel activity, PKCθ(h); type: biochemical; conditions: compound at 20 μM; vs reference with no compound
[16] = target: PKCζ(h) (Homo sapiens, UniProt Q05513); experiment: kinase panel activity, PKCζ(h); type: biochemical; conditions: compound at 20 μM; vs reference with no compound
[17] = target: PKD2(h) (Homo sapiens, UniProt Q9BZL6); experiment: kinase panel activity, PKD2(h); type: biochemical; conditions: compound at 20 μM; vs reference with no compound
[18] = tested on: IRS-1; experiment: IRS-1 expression and phosphorylation on a high calorie diet; type: in vivo
Source text: In addition, IRS-1 is phosphorylated at serine 307 (referred to PIRS-1).

[19] = tested on: FL5.12 cells; experiment: growth of hematopoietic cell line FL5.12; type: cell-based; conditions: 0.1, 1, 10 and 100 μM for 24 hours; in the presence of IL-3; Coulter counter
Source text: Hematopoietic cell line FL5.12 cells were seed at equal density and grown in the presence of IL-3, a growth factor.

Chain of Pim-2(h) (Q9P1W9 whole entry): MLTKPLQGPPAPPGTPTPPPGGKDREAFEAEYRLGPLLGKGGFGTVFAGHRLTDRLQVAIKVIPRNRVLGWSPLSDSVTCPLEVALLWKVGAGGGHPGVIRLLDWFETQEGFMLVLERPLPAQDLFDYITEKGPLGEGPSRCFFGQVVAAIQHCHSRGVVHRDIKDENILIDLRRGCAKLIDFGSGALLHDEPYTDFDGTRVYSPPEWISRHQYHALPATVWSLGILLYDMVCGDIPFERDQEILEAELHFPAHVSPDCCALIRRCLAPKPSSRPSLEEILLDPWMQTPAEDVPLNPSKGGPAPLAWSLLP
Chain of PDK1(h) (O15530 whole entry): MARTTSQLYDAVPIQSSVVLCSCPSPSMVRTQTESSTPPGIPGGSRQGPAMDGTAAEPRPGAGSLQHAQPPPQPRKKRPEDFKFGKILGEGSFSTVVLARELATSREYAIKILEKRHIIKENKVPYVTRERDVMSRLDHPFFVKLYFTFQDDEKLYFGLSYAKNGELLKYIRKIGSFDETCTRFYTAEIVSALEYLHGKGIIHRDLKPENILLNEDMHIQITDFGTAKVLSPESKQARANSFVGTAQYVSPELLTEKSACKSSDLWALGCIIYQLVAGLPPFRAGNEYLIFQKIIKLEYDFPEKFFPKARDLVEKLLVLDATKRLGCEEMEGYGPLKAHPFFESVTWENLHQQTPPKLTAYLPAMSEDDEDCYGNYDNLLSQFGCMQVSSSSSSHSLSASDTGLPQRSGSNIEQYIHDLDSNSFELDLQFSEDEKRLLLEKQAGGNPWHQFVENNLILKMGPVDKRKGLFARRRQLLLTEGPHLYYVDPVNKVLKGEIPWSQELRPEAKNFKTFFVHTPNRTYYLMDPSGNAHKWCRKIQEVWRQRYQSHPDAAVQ
Chain of PAK4(h) (O96013 whole entry): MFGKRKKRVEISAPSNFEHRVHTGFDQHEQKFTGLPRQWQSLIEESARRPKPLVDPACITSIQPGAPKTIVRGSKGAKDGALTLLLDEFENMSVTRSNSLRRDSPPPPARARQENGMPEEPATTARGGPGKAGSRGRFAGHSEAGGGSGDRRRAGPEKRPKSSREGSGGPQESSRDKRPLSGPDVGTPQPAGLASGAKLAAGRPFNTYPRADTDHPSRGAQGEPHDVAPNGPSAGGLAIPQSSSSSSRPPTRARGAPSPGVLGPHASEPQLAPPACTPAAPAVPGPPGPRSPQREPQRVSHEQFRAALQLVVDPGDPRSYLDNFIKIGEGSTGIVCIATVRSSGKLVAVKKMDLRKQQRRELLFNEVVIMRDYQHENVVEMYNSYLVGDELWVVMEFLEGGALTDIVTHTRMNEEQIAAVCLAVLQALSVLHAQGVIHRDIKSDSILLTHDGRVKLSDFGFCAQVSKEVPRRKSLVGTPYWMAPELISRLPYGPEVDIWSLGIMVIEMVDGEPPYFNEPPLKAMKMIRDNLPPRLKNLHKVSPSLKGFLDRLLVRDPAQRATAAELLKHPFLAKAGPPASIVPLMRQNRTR
Chain of MEK1(h) (Q02750 whole entry): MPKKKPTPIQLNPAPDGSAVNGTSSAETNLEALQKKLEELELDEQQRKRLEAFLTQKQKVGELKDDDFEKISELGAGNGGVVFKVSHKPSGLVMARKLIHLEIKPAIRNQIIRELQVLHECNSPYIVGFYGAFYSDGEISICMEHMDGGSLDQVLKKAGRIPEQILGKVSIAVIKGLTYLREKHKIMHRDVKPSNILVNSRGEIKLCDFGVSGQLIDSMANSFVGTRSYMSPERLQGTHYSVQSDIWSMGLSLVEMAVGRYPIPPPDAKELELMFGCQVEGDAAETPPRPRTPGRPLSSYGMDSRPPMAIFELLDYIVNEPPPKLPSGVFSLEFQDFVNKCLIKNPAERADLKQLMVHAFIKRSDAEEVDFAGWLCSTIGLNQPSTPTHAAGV
Chain of PKD2(h) (Q9BZL6 whole entry): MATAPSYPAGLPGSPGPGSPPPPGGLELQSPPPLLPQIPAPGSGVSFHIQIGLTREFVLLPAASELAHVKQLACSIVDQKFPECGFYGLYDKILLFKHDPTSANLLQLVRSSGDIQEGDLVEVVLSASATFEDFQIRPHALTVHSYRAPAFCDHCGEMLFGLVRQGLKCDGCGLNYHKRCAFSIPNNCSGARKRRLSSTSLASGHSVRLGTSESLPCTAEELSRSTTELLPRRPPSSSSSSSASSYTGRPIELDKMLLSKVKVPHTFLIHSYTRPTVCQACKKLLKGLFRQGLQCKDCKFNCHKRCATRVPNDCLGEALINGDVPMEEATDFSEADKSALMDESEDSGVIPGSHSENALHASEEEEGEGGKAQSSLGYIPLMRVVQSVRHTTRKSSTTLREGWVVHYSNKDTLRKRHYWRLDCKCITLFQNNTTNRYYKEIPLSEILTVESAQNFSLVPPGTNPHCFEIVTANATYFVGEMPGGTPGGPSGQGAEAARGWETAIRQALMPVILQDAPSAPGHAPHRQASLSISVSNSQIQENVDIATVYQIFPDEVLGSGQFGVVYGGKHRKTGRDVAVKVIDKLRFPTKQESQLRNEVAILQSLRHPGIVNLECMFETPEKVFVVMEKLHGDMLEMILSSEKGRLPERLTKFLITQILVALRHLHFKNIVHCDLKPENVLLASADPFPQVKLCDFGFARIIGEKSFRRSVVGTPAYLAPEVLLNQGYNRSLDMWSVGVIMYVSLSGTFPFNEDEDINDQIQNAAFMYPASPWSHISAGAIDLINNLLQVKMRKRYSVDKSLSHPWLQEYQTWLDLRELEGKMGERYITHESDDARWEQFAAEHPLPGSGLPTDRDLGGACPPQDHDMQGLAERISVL
Chain of PAK2(h) (Q13177 whole entry): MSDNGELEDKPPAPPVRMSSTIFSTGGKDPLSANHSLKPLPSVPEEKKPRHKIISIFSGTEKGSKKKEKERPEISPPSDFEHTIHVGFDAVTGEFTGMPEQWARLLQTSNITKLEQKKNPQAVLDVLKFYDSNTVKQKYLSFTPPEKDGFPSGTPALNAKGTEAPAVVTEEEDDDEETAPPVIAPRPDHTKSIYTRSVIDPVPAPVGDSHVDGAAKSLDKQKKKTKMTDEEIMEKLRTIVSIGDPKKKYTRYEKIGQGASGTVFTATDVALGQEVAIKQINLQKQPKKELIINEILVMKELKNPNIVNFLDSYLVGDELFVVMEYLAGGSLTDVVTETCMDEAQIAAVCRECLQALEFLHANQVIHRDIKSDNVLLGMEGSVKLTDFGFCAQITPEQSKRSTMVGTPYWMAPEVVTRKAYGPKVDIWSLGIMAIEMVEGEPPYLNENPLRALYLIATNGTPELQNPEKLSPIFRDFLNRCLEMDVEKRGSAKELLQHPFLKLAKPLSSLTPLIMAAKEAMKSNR
Chain of PAK3(h) (O75914 whole entry): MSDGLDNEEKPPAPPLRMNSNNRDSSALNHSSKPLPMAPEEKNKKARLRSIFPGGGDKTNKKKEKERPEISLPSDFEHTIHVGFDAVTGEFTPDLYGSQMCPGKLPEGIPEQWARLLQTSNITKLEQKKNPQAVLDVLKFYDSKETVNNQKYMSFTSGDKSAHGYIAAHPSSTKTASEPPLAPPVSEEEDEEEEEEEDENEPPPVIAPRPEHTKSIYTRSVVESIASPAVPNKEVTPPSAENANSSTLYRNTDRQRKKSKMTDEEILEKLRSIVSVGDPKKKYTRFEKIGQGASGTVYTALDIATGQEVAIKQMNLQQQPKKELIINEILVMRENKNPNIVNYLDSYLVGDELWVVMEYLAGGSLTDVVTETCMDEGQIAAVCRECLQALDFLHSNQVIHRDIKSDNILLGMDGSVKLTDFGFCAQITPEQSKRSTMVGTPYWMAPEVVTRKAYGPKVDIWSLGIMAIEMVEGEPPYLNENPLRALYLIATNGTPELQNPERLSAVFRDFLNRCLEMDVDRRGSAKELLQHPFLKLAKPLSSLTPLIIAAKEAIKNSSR

Row | SMILES | percent activity of Abl(h) [1] [%] | percent activity of Abl(T315I)(h) [2] [%] | percent activity of Flt3(h) [3] [%] | percent activity of JAK2(h) [4] [%] | percent activity of MEK1(h) [5] [%] | percent activity of PAK2(h) [6] [%] | percent activity of PAK3(h) [7] [%] | percent activity of PAK4(h) [8] [%] | percent activity of PDK1(h) [9] [%] | percent activity of Pim-2(h) [10] [%] | percent activity of PKCα(h) [11] [%] | percent activity of PKCβI(h) [12] [%] | percent activity of PKCγ(h) [13] [%] | percent activity of PKCδ(h) [14] [%] | percent activity of PKCθ(h) [15] [%] | percent activity of PKCζ(h) [16] [%] | percent activity of PKD2(h) [17] [%] | expression level of IRS-1 ([18]; approximately 22 mg/kg resveratrol added to diet) | proportion of phosphorylated IRS-1 (PIRS-1, serine 307) ([18]; resveratrol treatment) | inhibition of FL5.12 cell growth [19]
1 | O=C(O)[C@H]1O[C@@H](Oc2ccc(/C=C/c3cc(O)cc(O)c3)cc2)[C@H](O)[C@@H](O)[C@@H]1O [Res 4′-Gluc, resveratrol-4-glucuronide] | 97 | 93 | 48 | 95 | 120 | 105 | 75 | 107 | 97 | 76 | 100 | 119 | 77 | 110 | 103 | 104 | 113 |  |  | 
2 | Oc1ccc(C=Cc2cc(O)cc(O)c2)cc1 [resveratrol, 3,5,4′-trihydroxystilbene] |  |  |  |  | 110 |  |  | 103 | 108 | 14 | 114 |  |  |  |  |  |  | significantly reduced | increases | dose dependent inhibition
